According to patent US20100280010A1, “CHEMICAL COMPOUNDS” (priority 2006, published 2010):

System: HIV-1 (Ba-L or IIIB) infection of HOS cell line (expressing hCXCR4/hCCR5/hCD4/pHIV-LTR-luciferase)
Test: HOS HIV-1 Infectivity Assay
Type: cell-based
Conditions: Human immunodeficiency virus 1, HOS, virus strain not given, read-out: Activity Level
Method: Compounds were profiled against two HIV-1 viruses, the M-tropic (CCR5 utilizing) Ba-L strain and the T-tropic (CXCR4 utilizing) IIIB strain. Ba-L was propagated in either peripheral blood lymphocytes or SupT1/CCR5+/CXCR4+ cells. IIIB was propagated in peripheral blood lymphocytes. Compounds were tested for their ability to block infection of the HOS cell line (expressing hCXCR4/hCCR5/hCD4/pHIV-LTR-luciferase) by either HIV-1 Ba-L or HIV-1 IIIB. Compound cytotoxicity was also examined in the absence of virus addition.
HOS cells (expressing hCXCR4/hCCR5/hCD4/pHIV-LTR-luciferase) were harvested and diluted in Dulbeccos modified Eagles media supplemented with 2% FCS to a concentration of 120,000 cells/ml. The cells were plated into 96-well plates (50 μl per well) and the plates were placed in a tissue culture incubator ([…]; 5% CO2195% air) for a period of 24 h.
Subsequently, 50 μl of the desired drug solution (2 times the final concentration) was added to each well and the plates were returned to the tissue culture incubator (370° C.; 5% CO2/95% air) for 1 h. Following this incubation, 60 μl of diluted virus (4 times the final concentration) was added to 60 μl of 2× the final desired concentration of the compound and 100 μl of this compound/virus mix was added to each well (approximately 2 million RLU per well of virus). The plates were returned to the tissue culture incubator (370° C.; 5% CO2/95% air) and were incubated for a further 96 h.
Following this incubation the endpoint for the virally infected cultures was quantified following addition of Steady-Glo Luciferase assay system reagent (Promega, Madison, Wis.). Cell viability or non-infected cultures was measured using a CellTiter-Glo luminescent cell viability assay system (Promega, Madison, Wis.). All luminescent readouts are performed on a Topcount luminescence detector (Packard, Meridien, Conn.).

| SMILES | IC50 [nM] |
| --- | --- |
| CC(=O)c1c(CN(C)[C@H]2CCCc3cccnc32)nc2cccc(N3CCN(C)CC3)n12 [Example 14, 1-[5-(4-Methyl-1-piperazinyl)-2-({methyl[(8S)-5,6,7,8-tetrahydro-8-quinolinyl]amino}methyl)imidazo[1,2-a]pyridin-3-yl]ethanone] | < 100 |
| CN1CCN(c2cccc3nc(CN(C)[C@H]4CCCc5cccnc54)c(Br)n23)CC1 [Example 16, (8S)—N-{[3-Bromo-5-(4-methyl-1-piperazinyl)imidazo[1,2-a]pyridin-2-yl]methyl}-N-methyl-5,6,7,8-tetrahydro-8-quinolinamine] | < 100 |
| CN1CCN(c2cccc3nc(CN(C)[C@H]4CCCc5cccnc54)c(C#N)n23)CC1 [Example 17, 5-(4-Methyl-1-piperazinyl)-2-({methyl[(8S)-5,6,7,8-tetrahydro-8-quinolinyl]amino}methyl)imidazo[1,2-a]pyridine-3-carbonitrile] | < 100 |
| CN1CCN(c2cccc3nc(CN(C)[C@H]4CCCc5cccnc54)c(C(N)=O)n23)CC1 [Example 18, 5-(4-Methyl-1-piperazinyl)-2-({methyl[(8S)-5,6,7,8-tetrahydro-8-quinolinyl]amino}methyl)imidazo[1,2-a]pyridine-3-carboxamide] | < 100 |
| CCN(Cc1nc2cccc(N3CCN(C)CC3)n2c1C#N)[C@H]1CCCc2cccnc21 [Example 21, 2-({Ethyl[(8S)-5,6,7,8-tetrahydro-8-quinolinyl]amino}methyl)-5-(4-methyl-1-piperazinyl)imidazo[1,2-a]pyridine-3-carbonitrile] | < 100 |
| CCN(Cc1nc2cccc(N3CCN(C)CC3)n2c1C(N)=O)[C@H]1CCCc2cccnc21 [Example 22, 2-({Ethyl[(8S)-5,6,7,8-tetrahydro-8-quinolinyl]amino}methyl)-5-(4-methyl-1-piperazinyl)imidazo[1,2-a]pyridine-3-carboxamide] | < 100 |
| CCCN(Cc1nc2cccc(N3CCN(C)CC3)n2c1C#N)[C@H]1CCCc2cccnc21 [Example 25, 5-(4-Methyl-1-piperazinyl)-2-({propyl[(8S)-5,6,7,8-tetrahydro-8-quinolinyl]amino}methyl)imidazo[1,2-a]pyridine-3-carbonitrile] | < 100 |
| CCCN(Cc1nc2cccc(N3CCN(C)CC3)n2c1C(N)=O)[C@H]1CCCc2cccnc21 [Example 26, 5-(4-Methyl-1-piperazinyl)-2-({propyl[(8S)-5,6,7,8-tetrahydro-8-quinolinyl]amino}methyl)imidazo[1,2-a]pyridine-3-carboxamide] | < 100 |
| CC(C)N(Cc1nc2cccc(N3CCN(C)CC3)n2c1C#N)[C@H]1CCCc2cccnc21 [Example 29, 2-({(1-Methylethyl)[(8S)-5,6,7,8-tetrahydro-8-quinolinyl]amino}methyl)-5-(4-methyl-1-piperazinyl)imidazo[1,2-a]pyridine-3-carbonitrile] | < 100 |
| CC(C)N(Cc1nc2cccc(N3CCN(C)CC3)n2c1C(N)=O)[C@H]1CCCc2cccnc21 [Example 30, 2-([(1-Methylethyl)[(8S)-5,6,7,8-tetrahydro-8-quinolinyl]amino]methyl)-5-(4-methyl-1-piperazinyl)imidazo[1,2-a]pyridine-3-carboxamide] | < 100 |
| CN1CCN(c2cccc3nc(CN(CC4CC4)[C@H]4CCCc5cccnc54)c(C#N)n23)CC1 [Example 33, 2-({(Cyclopropylmethyl)[(8S)-5,6,7,8-tetrahydro-8-quinolinyl]amino}methyl)-5-(4-methyl-1-piperazinyl)imidazo[1,2-a]pyridine-3-carbonitrile] | < 100 |
| CN(C)[C@@H]1CCN(c2cccc3nc(CN(C)[C@H]4CCCc5cccnc54)c(C#N)n23)C1 [Example 38, 5-[(3R)-3-(Dimethylamino)-1-pyrrolidinyl]-2-({methyl[(8S)-5,6,7,8-tetrahydro-8-quinolinyl]amino}methyl)imidazo[1,2-a]pyridine-3-carbonitrile] | < 100 |
| CN(C)[C@@H]1CCN(c2cccc3nc(CN(C)[C@H]4CCCc5cccnc54)c(C(N)=O)n23)C1 [Example 39, 5-[(3R)-3-(Dimethylamino)-1-pyrrolidinyl]-2-({methyl[(8S)-5,6,7,8-tetrahydro-8-quinolinyl]amino}methyl)imidazo[1,2-a]pyridine-3-carboxamide] | < 100 |
| CCN(Cc1nc2cccc(N3CC[C@@H](N(C)C)C3)n2c1C#N)[C@H]1CCCc2cccnc21 [Example 42, 5-[(3R)-3-(Dimethylamino)-1-pyrrolidinyl]-2-({ethyl[(8S)-5,6,7,8-tetrahydro-8-quinolinyl]amino}methyl)imidazo[1,2-a]pyridine-3-carbonitrile] | < 100 |
| CCN(Cc1nc2cccc(N3CC[C@@H](N(C)C)C3)n2c1C(N)=O)[C@H]1CCCc2cccnc21 [Example 43, 5-[(3R)-3-(Dimethylamino)-1-pyrrolidinyl]-2-({ethyl[(8S)-5,6,7,8-tetrahydro-8-quinolinyl]amino}methyl)imidazo[1,2-d]pyridine-3-carboxamide] | < 100 |
| CCCN(Cc1nc2cccc(N3CC[C@@H](N(C)C)C3)n2c1C#N)[C@H]1CCCc2cccnc21 [Example 46, 5-[(3R)-3-(Dimethylamino)-1-pyrrolidinyl]-2-({propyl[(8S)-5,6,7,8-tetrahydro-8-quinolinyl]amino}methyl)imidazo[1,2-a]pyridine-3-carbonitrile] | < 100 |
| CCCN(Cc1nc2cccc(N3CC[C@@H](N(C)C)C3)n2c1C(N)=O)[C@H]1CCCc2cccnc21 [Example 47, 5-[(3R)-3-(Dimethylamino)-1-pyrrolidinyl]-2-({propyl[(8S)-5,6,7,8-tetrahydro-8-quinolinyl]amino}methyl)imidazo[1,2-a]pyridine-3-carboxamide] | < 100 |
| CC(C)N(Cc1nc2cccc(N3CC[C@@H](N(C)C)C3)n2c1C#N)[C@H]1CCCc2cccnc21 [Example 50, 5-[(3R)-3-(Dimethylamino)-1-pyrrolidinyl]-2-({(1-methylethyl)[(8S)-5,6,7,8-tetrahydro-8-quinolinyl]amino}methyl)imidazo[1,2-a]pyridine-3-carbonitrile] | < 100 |
| CC(C)N(Cc1nc2cccc(N3CC[C@@H](N(C)C)C3)n2c1C(N)=O)[C@H]1CCCc2cccnc21 [Example 51, 5-[(3R)-3-(Dimethylamino)-1-pyrrolidinyl]-2-({(1-methylethyl)[(8S)-5,6,7,8-tetrahydro-8-quinolinyl]amino}methyl)imidazo[1,2-a]pyridine-3-carboxamide] | < 100 |
| CN(C)[C@@H]1CCN(c2cccc3nc(CN(Cc4ccccc4)[C@H]4CCCc5cccnc54)c(C#N)n23)C1 [Example 53, 5-[(3R)-3-(Dimethylamino)-1-pyrrolidinyl]-2-({(phenylmethyl)[(8S)-5,6,7,8-tetrahydro-8-quinolinyl]amino}methyl)imidazo[1,2-a]pyridine-3-carbonitrile] | < 100 |
| CN(C)C1CCN(c2cccc3nc(CN(C)[C@H]4CCCc5cccnc54)c(C#N)n23)CC1 [Example 58, 5-[4-(dimethylamino)-1-piperidinyl]-2-({methyl[(8S)-5,6,7,8-tetrahydro-8-quinolinyl]amino}methyl)imidazo[1,2-a]pyridine-3-carbonitrile] | < 100 |
| CN(C)C1CCN(c2cccc3nc(CN(C)[C@H]4CCCc5cccnc54)c(C(N)=O)n23)CC1 [Example 59] | < 100 |
| CCN(Cc1nc2cccc(N3CCC(N(C)C)CC3)n2c1C#N)[C@H]1CCCc2cccnc21 [Example 62, 5-[4-(dimethylamino)-1-piperidinyl]-2-({ethyl[(8S)-5,6,7,8-tetrahydro-8-quinolinyl]amino}methyl)imidazo[1,2-a]pyridine-3-carbonitrile] | < 100 |
| CCN(Cc1nc2cccc(N3CCC(N(C)C)CC3)n2c1C(N)=O)[C@H]1CCCc2cccnc21 [Example 63, 5-[4-(dimethylamino)-1-piperidinyl]-2-({ethyl[(8S)-5,6,7,8-tetrahydro-8-quinolinyl]amino}methyl)imidazo[1,2-a]pyridine-3-carboxamide] | < 100 |
| CCCN(Cc1cn2c(N3CCC(N(C)C)CC3)cccc2n1)[C@H]1CCCc2cccnc21 [Example 64, (8S)—N-({5-[4-(dimethylamino)-1-piperidinyl]imidazo[1,2-a]pyridin-2-yl}methyl)-N-propyl-5,6,7,8-tetrahydro-8-quinolinamine] | < 100 |
| CCCN(Cc1nc2cccc(N3CCC(N(C)C)CC3)n2c1C#N)[C@H]1CCCc2cccnc21 [Example 66, 5-[4-(dimethylamino)-1-piperidinyl]-2-({propyl[(8S)-5,6,7,8-tetrahydro-8-quinolinyl]amino}methyl)imidazo[1,2-a]pyridine-3-carbonitrile] | < 100 |
| CCCN(Cc1nc2cccc(N3CCC(N(C)C)CC3)n2c1C(N)=O)[C@H]1CCCc2cccnc21 [Example 67, 5-[4-(dimethylamino)-1-piperidinyl]-2-({propyl[(8S)-5,6,7,8-tetrahydro-8-quinolinyl]amino}methyl)imidazo[1,2-a]pyridine-3-carboxamide] | < 100 |
